Data: ChEMBL document CHEMBL1155486, “From 6-aminoquinolone antibacterials to 6-amino-7-thiopyranopyridinylquinolone ethyl esters as inhibitors of Staphylococcus aureus multidrug efflux pumps” (2010)
Values after ≈ are worked out from the molar mass of the structure shown.

Legend:
Staphylococcus aureus [1] = assay: Antibacterial activity against Staphylococcus aureus K1640 bearing S84L mutant GyrA and S80Y mutant GrlA by microdilution technique; assay type: functional
Staphylococcus aureus [2] = assay: Antibacterial activity against Staphylococcus aureus SA-1199B norA++ and A116E GrlA mutation by microdilution technique; assay type: functional
Staphylococcus aureus [3] = assay: Antibacterial activity against Staphylococcus aureus K1134 bearing wild-type GyrA and S80Y mutant GrlA by microdilution technique; assay type: functional
Staphylococcus aureus [4] = assay: Antibacterial activity against Staphylococcus aureus K1305 bearing wild-type GyrA and E84K mutant GrlA by microdilution technique; assay type: functional
Staphylococcus aureus [5] = assay: Antibacterial activity against Staphylococcus aureus ATCC 25923 by microdilution technique; assay type: functional
Staphylococcus aureus [6] = assay: Antibacterial activity against Staphylococcus aureus K1628 bearing S84L mutant GyrA and S80F mutant GrlA by microdilution technique; assay type: functional
Staphylococcus aureus [7] = assay: Antibacterial activity against wild-type norA expressing Staphylococcus aureus SA-1199 by microdilution technique; assay type: functional
Escherichia coli = assay: Antibacterial activity against Escherichia coli ATCC 25922 by microdilution technique; assay type: functional
Staphylococcus aureus [8] = assay: Antibacterial activity against methicillin and ciprofloxacin-resistant Staphylococcus aureus 25A by microdilution technique; assay type: functional
Staphylococcus aureus [9] = assay: Antibacterial activity against Staphylococcus aureus SA-K1902 bearing norA- deficient mutation by microdilution technique; assay type: functional
Staphylococcus aureus [10] = assay: Antibacterial activity against Staphylococcus aureus K1035 bearing wild-type GyrA and S80F mutant GrlA by microdilution technique; assay type: functional
Staphylococcus aureus [11] = assay: Antibacterial activity against Staphylococcus aureus SA-K1904 bearing norA++ efficient mutation by microdilution technique; assay type: functional
Staphylococcus aureus [12] = assay: Antibacterial activity against Staphylococcus aureus SA-1199B by EtBr efflux assay; assay type: functional
[13] = target: T1, Quinolone resistance protein NorA (Staphylococcus aureus) (UniProt P0A0J7); assay: Inhibition of NorA in Staphylococcus aureus SA-1199B assessed as reduction in ethidium bromide efflux at 50 uM by fluorimetry; parameters: scale not given: the % may be the effect or the level left
T1 sequence (whole entry): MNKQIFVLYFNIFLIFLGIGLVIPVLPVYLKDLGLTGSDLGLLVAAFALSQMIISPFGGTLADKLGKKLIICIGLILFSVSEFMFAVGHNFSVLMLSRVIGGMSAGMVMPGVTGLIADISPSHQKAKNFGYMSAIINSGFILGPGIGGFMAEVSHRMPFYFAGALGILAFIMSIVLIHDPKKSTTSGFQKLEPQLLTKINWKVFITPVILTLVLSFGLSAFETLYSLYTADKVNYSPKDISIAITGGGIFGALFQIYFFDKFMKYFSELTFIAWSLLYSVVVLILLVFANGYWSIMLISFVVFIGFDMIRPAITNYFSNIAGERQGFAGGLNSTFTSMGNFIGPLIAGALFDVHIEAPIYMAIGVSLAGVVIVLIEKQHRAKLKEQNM

| MIC (Staphylococcus aureus [12]) | Activity [13] | SMILES | MIC (Staphylococcus aureus [1]) | MIC (Staphylococcus aureus [2]) | MIC (Staphylococcus aureus [3]) | MIC (Staphylococcus aureus [4]) | MIC (Staphylococcus aureus [5]) | MIC (Staphylococcus aureus [6]) | MIC (Staphylococcus aureus [7]) | MIC (Escherichia coli) | MIC (Staphylococcus aureus [8]) | MIC (Staphylococcus aureus [9]) | MIC (Staphylococcus aureus [10]) | MIC (Staphylococcus aureus [11]) |
| --- | --- | --- | --- | --- | --- | --- | --- | --- | --- | --- | --- | --- | --- | --- |
| – | – | CC1CSC2=C(CN(c3cc4c(cc3F)c(=O)c(C(=O)O)cn4C3CC3)CC2)C1=O (stereo unspecified) | > 10 µg/mL | 0.16 µg/mL (≈ 0.373 µM) | 1.25 µg/mL (≈ 2.92 µM) | 1.25 µg/mL (≈ 2.92 µM) | 0.31 µg/mL (≈ 0.723 µM) | > 10 µg/mL | 0.08 µg/mL (≈ 0.187 µM) | 8 µg/mL (≈ 18.7 µM) | 32 µg/mL (≈ 74.7 µM) | 0.16 µg/mL (≈ 0.373 µM) | 1.25 µg/mL (≈ 2.92 µM) | 0.16 µg/mL (≈ 0.373 µM) |
| – | – | O=C1CCSC2=C1CN(c1cc3c(cc1F)c(=O)c(C(=O)O)cn3C1CC1)CC2 | – | 3.13 µg/mL (≈ 7.55 µM) | – | – | 0.08 µg/mL (≈ 0.193 µM) | – | 1.56 µg/mL (≈ 3.76 µM) | 8 µg/mL (≈ 19.3 µM) | > 128 µg/mL | 0.31 µg/mL (≈ 0.748 µM) | – | 0.63 µg/mL (≈ 1.52 µM) |
| > 100 µg/mL | 35.7% | CCOC(=O)c1cn(C2CC2)c2cc(N3CCC4=C(C3)C(=O)CCS4)c(N)cc2c1=O | – | – | – | – | – | – | – | – | – | – | – | – |
| – | – | COc1c(N2C[C@@H]3CCCN[C@@H]3C2)c(F)cc2c(=O)c(C(=O)O)cn(C3CC3)c12 [MOXIFLOXACIN] | 2.5 µg/mL (≈ 6.23 µM) | 0.25 µg/mL (≈ 0.623 µM) | 0.31 µg/mL (≈ 0.772 µM) | 0.31 µg/mL (≈ 0.772 µM) | < 0.08 µg/mL | 5 µg/mL (≈ 12.5 µM) | 0.08 µg/mL (≈ 0.199 µM) | < 0.08 µg/mL | 2 µg/mL (≈ 4.98 µM) | 0.08 µg/mL (≈ 0.199 µM) | 0.31 µg/mL (≈ 0.772 µM) | 0.08 µg/mL (≈ 0.199 µM) |
| – | – | O=C(O)c1cn(C2CC2)c2cc(N3CCC4=C(C3)/C(=N/O)CCS4)c(F)cc2c1=O | – | 2.5 µg/mL (≈ 5.82 µM) | – | – | 2 µg/mL (≈ 4.66 µM) | – | 0.63 µg/mL (≈ 1.47 µM) | 1 µg/mL (≈ 2.33 µM) | 2 µg/mL (≈ 4.66 µM) | 0.63 µg/mL (≈ 1.47 µM) | – | 0.63 µg/mL (≈ 1.47 µM) |
| > 100 µg/mL | 47.3% | CCOC(=O)c1cn(C2CC2)c2c(C)c(N3CCC4=C(C3)C(O)CCS4)c(N)cc2c1=O (stereo unspecified) | – | – | – | – | – | – | – | – | – | – | – | – |
| – | – | CO/N=C1/C2=C(CCN(c3c(N)cc4c(=O)c(C(=O)O)cn(C5CC5)c4c3C)C2)SCC1C (stereo unspecified) | – | 3.13 µg/mL (≈ 6.68 µM) | – | – | 16 µg/mL (≈ 34.1 µM) | – | 3.13 µg/mL (≈ 6.68 µM) | 8 µg/mL (≈ 17.1 µM) | 8 µg/mL (≈ 17.1 µM) | 6.25 µg/mL (≈ 13.3 µM) | – | 6.25 µg/mL (≈ 13.3 µM) |
| – | – | CO/N=C1\CCSC2=C1CN(c1cc3c(cc1F)c(=O)c(C(=O)O)cn3C1CC1)CC2 | – | 2.5 µg/mL (≈ 5.64 µM) | – | – | 0.25 µg/mL (≈ 0.564 µM) | – | 1.25 µg/mL (≈ 2.82 µM) | 32 µg/mL (≈ 72.2 µM) | 1 µg/mL (≈ 2.25 µM) | 1.25 µg/mL (≈ 2.82 µM) | – | 1.25 µg/mL (≈ 2.82 µM) |
